Experimental data: patent US20100184678A1, “USE OF A PEPTIDE AS A THERAPEUTIC AGENT” (priority 2007, published 2010)
Where no end group is shown, it is not given here.

Assays:
HIV-1IIIB = assay: HIV-1 antiviral assay in CEM-SS cells (MTS readout); details: HIV-1IIIB in CEM-SS cells
HCMV strain AD169 = assay: HCMV plaque formation assay in MRC-5 cells; type: cell-based; details: for inhibition of HCMV plaque formation as compared to the virus control experiment: 10 micrograms per ml, MRC-5 cells, 7-10 days
Description: Ganciclovir was used as positive control.

HUVEC = assay: Endothelial tube formation assay; type: cell-based, human; details: 10 micrograms per ml; 20 hours
Description: Positive control was vehicle only. […] Raw data were expressed as average tubule lenghs in pixels±standard deviation.

A549 cells [1] = assay: Apoptosis prevention assay (C2 ceramide, Annexin-5); type: cell-based, human; details: 10 micrograms per ml, 30 min pretreatment, then C2 ceramide
Description: Human A549 cells (carcinomic human alveolar basal epithelial cells) were utilized in the experiments employing the Annexin-5 apoptosis assay. […] A549 cells were pretreated for 30 min with test peptides—10 micrograms per ml—followed by the exposure to C2 ceramide.

murine spleen cells = assay: Th1/Th2 cytokine profiling assay (Ovalbumin-restimulated spleen cells); type: cell-based, Balb/c mice; details: 10 micrograms per ml, 72 hours; for production of IFN-gamma (decreased by %) / production of IL-4 (decreased by %) / production of IL-5 (decreased by %): number = decrease; for production of TNF-alpha (induced by %): number = increase
[2] = system: Primary Human endothelial cells (HUVEC); assay: Endothelial cell migration assay; type: cell-based; details: 10 micrograms per ml; 22 hours
Description: Thereafter, designated concentration of testing peptides—10 micrograms per ml—was added in duplicate wells.

A549 cells [3] = assay: Apoptosis induction assay (Annexin-5); type: cell-based, human; details: 10 micrograms per ml; 24 hours
Description: Human A549 cells (carcinomic human alveolar basal epithelial cells) were utilized in the experiments employing the Annexin-5 apoptosis assay. […] Test peptides—10 micrograms per ml—were exposed for 24 hours to the A549 cells before they were analyzed for signs of apoptosis.

[4] = system: hepatitis B virus (HBV) ayw strain; assay: HBV assay in HepG2-2.2.15 cells (secreted HBV DNA, TaqMan PCR); type: cell-based; details: 10 micrograms per ml, HepG2-2.2.15, six days

Molecule | antiviral activity of positive control compounds (HIV-1IIIB) | antiviral activity of positive control compound (HCMV strain AD169; HCMV in MRC-5 cells) | inhibition of the tube formation of human endothelial cells (HUVEC) | induction of apoptosis on ceramide-induced apoptosis (A549 cells [1]; increase of apoptosis) [%] | production of IL-2 (change) (murine spleen cells) | production of IFN-gamma (decreased by %) (murine spleen cells) | production of IL-4 (decreased by %) (murine spleen cells) | production of IL-5 (decreased by %) (murine spleen cells) | production of TNF-alpha (induced by %) (murine spleen cells) | inhibition of the migration of human endothelial cells [2] | inhibition of HCMV plaque formation as compared to the virus control experiment (HCMV strain AD169) | induction of apoptosis on human lung cells (A549 cells [3]) | inhibition of HBV replication as compared to the virus control infection [4] [%] | prevention of apoptosis on ceramide-induced apoptosis (A549 cells [1]; protection) [%]
Cc1cn([C@H]2C[C@H](N=[N+]=[N-])[C@@H](CO)O2)c(=O)[nH]c1=O [AZT] | expected levels of antiviral activity | – | – | – | – | – | – | – | – | – | – | – | – | –
Nc1nc(O)c2ncn(COC(CO)CO)c2n1 [Ganciclovir, reference compound] | – | expected levels of antiviral activity | – | – | – | – | – | – | – | – | – | – | – | –
CC(C)(C)NC(=O)[C@@H]1CN(Cc2cccnc2)CCN1C[C@@H](O)C[C@@H](Cc1ccccc1)C(=O)N[C@H]1c2ccccc2C[C@H]1O [indinavir] | expected levels of antiviral activity | – | – | – | – | – | – | – | – | – | – | – | – | –
His-Pro-Leu-Gln-Lys-Thr-Tyr-OH (HPLQKTY-OH) [Peptide 1] | – | – | 6% | 9.7 | did not significantly change | did not significantly change | 30.9% | did not significantly change | 31.3% | 4% | 0.3% | did not show any significant induction | 25.3 | –
His-Ser-Asp-Gly-Ile-Phe-Thr-Asp-Ser-Tyr-Ser-Arg-Tyr-Arg-Lys-Gln-Met-Ala-Val-Lys-Lys-Tyr-Leu-Ala-Ala-Val-Leu-NH2 (HSDGIFTDSYSRYRKQMAVKKYLAAVL-NH2) [Peptide 2] | – | – | did not inhibit | – | did not significantly change | 62.9% | did not significantly change | 43.3% | did not significantly change | did not inhibit | did not inhibit | 3.6% | 39.1 | 13.7
